Patent publication US12514254B2, “Rosa canina rosehip” (priority 2020, dated 2026)

Legend:
E. coli = assay: Drug-resistance profile towards antibiotics; assay type: cell-based, Escherichia coli; further: key: R = resistant; S = sensitive
Method: (§1) The resistance profiles of the microbial strains mentioned above, evaluated by the inventors and available in the literature, are reported in Tables 4 and 5 [24-26].
(§2) The activity on bacterial or fungal (yeast) strains isolated from biological samples from hospitalized or collection patients was evaluated, the nosocomial derivation of the majority of these strains characterized their resistance to different antimicrobials as reported in Tables 4 and 5.
(§3) In particular: • Klebsiella pneumoniae: represents the main opportunistic microorganism responsible for nosocomial infections and several authors report persistent biofilms of K. pneumoniae in water systems. A clinical isolate (NC5) was used to assess the actual resistance to the preparations. • Escherichia coli: the ATCC 7075 (American Type Culture Collection) strain was used. • Staphylococcus aureus Methicillin-resistantATCC BAA-811 is responsible for several suppurative infections in humans, it is often isolated in patients with prostheses. • Pseudomonas aeruginosa: in the present work a mucoid strain was tested (ATCC 15442) from the American Type Culture Collection (ATCC), known in the literature for its remarkable refractoriness to disinfectants, in particular if the strain is present in sessile form or in a state of mature biofilm. https://www.lgcstandards-atcc.org/products/all/15442.aspx?geo_country=it • Three azole-resistant clinical isolates belonging to the Candida genus were used, in particular: C. albicans clinical isolate BF1, C. krusei clinical isolate BF2 andclinical C. glabrata, isolate BF3 [1,26]. • In all the tests performed, each microbial species was cultivated according to standard growth conditions, in particular: • 1. Mueller-Hinton Agar medium (Microbiol, Uta, Cagliari), was used for the growth of E. coli, S. aureus, P. aeruginosa and K. pneumoniae. The development conditions were: in air at 37° C. • 2. Schaedler Agar and Broth (Microbiol) medium was used for the growth of S. pyogenes and S. mutans. Development conditions: in air and 5% CO2 at 37° C. • 3. Sabouraud Dextrose Agar and Broth (Microbiol), used for C. albicans, C. krusei and C. glabrata. Development conditions: in air at 37° C.

K. pneumoniae = assay: Drug-resistance profile towards antibiotics; assay type: cell-based, Klebsiella pneumoniae; further: key: R = resistant; S = sensitive
Method: as §1, §2, §3

P. aeruginosa = assay: Drug-resistance profile towards antibiotics; assay type: cell-based, Pseudomonas aeruginosa; further: key: R = resistant; S = sensitive
Method: as §1, §2, §3

S. aureus MRSA = assay: Drug-resistance profile towards antibiotics; assay type: cell-based, Staphylococcus aureus; further: key: R = resistant; S = sensitive
Method: as §1, §2, §3

S. pyogenes = assay: Drug-resistance profile towards antibiotics; assay type: cell-based, Streptococcus pyogenes; further: key: R = resistant; S = sensitive
Method: as §1, §2, §3

C. glabrata = assay: Drug-resistance profile of fungal strains; assay type: cell-based, Candida glabrata
Method: as §1, §2
as §3, with “Sabouraud Dextrose Agar and Broth (Microbiol), used for C. albicans, C. krusei and C. glabrata. Development conditions: in air at 37° C.” left out

C. krusei = assay: Drug-resistance profile of fungal strains; assay type: cell-based, Candida krusei
Method: as §1, §2
as §3, with “Sabouraud Dextrose Agar and Broth (Microbiol), used for C. albicans, C. krusei and C. glabrata. Development conditions: in air at 37° C.” left out

C. albicans = assay: Drug-resistance profile of fungal strains; assay type: cell-based, Candida albicans
Method: as §1, §2
as §3, with “Sabouraud Dextrose Agar and Broth (Microbiol), used for C. albicans, C. krusei and C. glabrata. Development conditions: in air at 37° C.” left out

Row | Compound | Drug-resistance profile (K. pneumoniae) | Drug-resistance profile (P. aeruginosa) | Drug-resistance profile (S. aureus MRSA) | Drug-resistance profile (S. pyogenes) | also measured
1 | NCC[C@H](O)C(=O)N[C@@H]1C[C@H](N)[C@@H](O[C@H]2O[C@H](CN)[C@@H](O)[C@H](O)[C@H]2O)[C@H](O)[C@H]1O[C@H]1O[C@H](CO)[C@@H](O)[C@H](N)[C@H]1O [Amikacin] | R | S | – | – | Drug-resistance profile (E. coli): R
2 | CC1(C)S[C@@H]2[C@H](NC(=O)Cc3ccccc3)C(=O)N2[C@H]1C(=O)O [Benzylpenicillin] | – | – | R | – | –
3 | CO/N=C(\C(=O)N[C@@H]1C(=O)N2C(C(=O)[O-])=C(C[N+]3(C)CCCC3)CS[C@H]12)c1csc(N)n1 [Cefepime] | S | S | – | – | –
4 | CO/N=C(\C(=O)N[C@@H]1C(=O)N2C(C(=O)O)=C(COC(C)=O)CS[C@H]12)c1csc(N)n1 [Cefotaxime] | – | – | – | – | Drug-resistance profile (E. coli): S
5 | CCO/N=C(\C(=O)N[C@@H]1C(=O)N2C(C(=O)[O-])=C(Sc3nc(-c4cc[n+](C)cc4)cs3)CS[C@H]12)c1nsc(N)n1 [Ceftaroline] | – | – | S | – | –
6 | CC(C)(O/N=C(\C(=O)N[C@@H]1C(=O)N2C(C(=O)[O-])=C(C[n+]3ccccc3)CS[C@H]12)c1csc(N)n1)C(=O)O [Ceftazidime] | S | S | – | – | Drug-resistance profile (E. coli): S
7 | O=C(O)c1cn(C2CC2)c2cc(N3CCNCC3)c(F)cc2c1=O [Ciprofloxacin] | S | R | – | – | –
8 | CCC[C@@H]1C[C@@H](C(=O)N[C@@H]([C@H]2O[C@H](SC)[C@H](O)[C@@H](O)[C@H]2O)[C@H](C)Cl)N(C)C1 [Clindamycin] | – | – | S | S | –
9 | CCCCCCCCCC(=O)N[C@@H](Cc1c[nH]c2ccccc12)C(=O)N[C@H](CC(N)=O)C(=O)N[C@@H](CC(=O)O)C(=O)N[C@@H]1C(=O)NCC(=O)N[C@@H](CCCN)C(=O)N[C@@H](CC(=O)O)C(=O)N[C@H](C)C(=O)N[C@@H](CC(=O)O)C(=O)NCC(=O)N[C@H](CO)C(=O)N[C@@H]([C@H](C)CC(=O)O)C(=O)N[C@@H](CC(=O)c2ccccc2N)C(=O)O[C@@H]1C [Daptomycin] | – | – | S | – | –
10 | C[C@@H](O)[C@H]1C(=O)N2C(C(=O)O)=C(S[C@@H]3CN[C@H](C(=O)Nc4cccc(C(=O)O)c4)C3)[C@H](C)[C@H]12 [Ertapenem] | R | R | – | – | Drug-resistance profile (E. coli): S
11 | CC[C@H]1OC(=O)[C@H](C)[C@@H](O[C@H]2C[C@@](C)(OC)[C@@H](O)[C@H](C)O2)[C@H](C)[C@@H](O[C@@H]2O[C@H](C)C[C@H](N(C)C)[C@H]2O)[C@](C)(O)C[C@@H](C)C(=O)[C@H](C)[C@@H](O)[C@]1(C)O [Erythromycin] | – | – | R | S | –
12 | OC(Cn1cncn1)(Cn1cncn1)c1ccc(F)cc1F [Fluconazole] | – | – | – | – | Drug-resistance profile (C. glabrata; FLC reference values): R (FLC: R > 64 μg/mL); Drug-resistance profile (C. krusei; FLC reference values): R (FLC: R > 64 μg/mL); Drug-resistance profile (C. albicans; FLC reference values): R (FLC: R > 64 μg/mL)
13 | C[C@@H]1O[C@@H]1P(=O)(O)O [Fosfomycin] | S | R | – | – | –
14 | CC(=O)O[C@H]1C[C@@]2(C)[C@@H](C[C@@H](O)[C@H]3[C@@]4(C)CC[C@@H](O)[C@@H](C)[C@@H]4CC[C@@]32C)/C1=C(\CCC=C(C)C)C(=O)O [Fusidic acid] | – | – | S | S | –
15 | C[C@@H](O)[C@H]1C(=O)N2C(C(=O)O)=C(SCCN=CN)C[C@H]12 [Imipenem] | S | S | – | – | –
16 | CC(=O)N1CCN(c2ccc(OCC3COC(Cn4ccnc4)(c4ccc(Cl)cc4Cl)O3)cc2)CC1 (stereo not shown) [Ketoconazole] | – | – | – | – | Drug-resistance profile (C. glabrata; KTC reference values): R (KTC: R > 1 μg/mL); Drug-resistance profile (C. krusei; KTC reference values): R (KTC: R > 1 μg/mL); Drug-resistance profile (C. albicans; KTC reference values): R (KTC: R > 1 μg/mL)

Row | Compound | Drug-resistance profile (K. pneumoniae) | Drug-resistance profile (P. aeruginosa) | Drug-resistance profile (S. aureus MRSA) | Drug-resistance profile (S. pyogenes) | also measured
17 | C[C@H]1COc2c(N3CCN(C)CC3)c(F)cc3c(=O)c(C(=O)O)cn1c23 [Levofloxacin] | – | – | S | S | –
18 | CC(=O)NC[C@H]1CN(c2ccc(N3CCOCC3)c(F)c2)C(=O)O1 [Linezolid] | – | – | S | S | –
19 | C[C@@H](O)[C@H]1C(=O)N2C(C(=O)O)=C(S[C@@H]3CN[C@H](C(=O)N(C)C)C3)[C@H](C)[C@H]12 [Meropenem] | S | S | – | – | Drug-resistance profile (E. coli): S
20 | Cc1onc(-c2ccccc2)c1C(=O)N[C@@H]1C(=O)N2[C@@H]1SC(C)(C)[C@@H]2C(=O)O [Oxacillin] | – | – | S | R | –
21 | CO[C@H]1/C=C/O[C@@]2(C)Oc3c(C)c(O)c4c(O)c(c(/C=N/N5CCN(C)CC5)c(O)c4c3C2=O)NC(=O)/C(C)=C\C=C\[C@H](C)[C@H](O)[C@@H](C)[C@@H](O)[C@@H](C)[C@H](OC(C)=O)[C@@H]1C [Rifampicin] | – | – | S | S | –
22 | CN(C)[C@@H]1C(O)=C(C(N)=O)C(=O)[C@@]2(O)C(O)=C3C(=O)c4c(O)cccc4[C@@](C)(O)[C@H]3C[C@@H]12 [Tetracycline] | – | – | S | – | –
23 | CN(C)c1cc(NC(=O)CNC(C)(C)C)c(O)c2c1C[C@H]1C[C@H]3[C@H](N(C)C)C(O)=C(C(N)=O)C(=O)[C@@]3(O)C(O)=C1C2=O [Tigecycline] | – | – | S | S | –
24 | CN[C@H](CC(C)C)C(=O)N[C@H]1C(=O)N[C@@H](CC(N)=O)C(=O)N[C@H]2C(=O)N[C@H]3C(=O)N[C@H](C(=O)N[C@H](C(=O)O)c4cc(O)cc(O)c4-c4cc3ccc4O)[C@H](O)c3ccc(c(Cl)c3)Oc3cc2cc(c3O[C@@H]2O[C@H](CO)[C@@H](O)[C@H](O)[C@H]2O[C@H]2C[C@](C)(N)[C@H](O)[C@H](C)O2)Oc2ccc(cc2Cl)[C@H]1O [Vancomycin] | – | – | S | S | –
25 | C[C@@H](c1ncncc1F)[C@](O)(Cn1cncn1)c1ccc(F)cc1F [Voriconazole] | – | – | – | – | Drug-resistance profile (C. glabrata; VRC reference values): R (VRC: R > 4 μg/mL); Drug-resistance profile (C. krusei; VRC reference values): R (VRC: R > 4 μg/mL); Drug-resistance profile (C. albicans; VRC reference values): R (VRC: R > 4 μg/mL)
26 | Amoxicillin/ac. Clavulanic | – | – | – | – | Drug-resistance profile (E. coli): R
27 | Colistin | S | S | – | – | –
28 | Gentamicin | S | S | S | S | –
29 | Piperacillin-tazobactam | S | S | – | – | Drug-resistance profile (E. coli): S
30 | Teicoplanin | – | – | S | – | –
31 | Trimethoprim-sulfamethoxazole | R | R | S | R | –
